Patent publication US9187474B2, “Raf inhibitor compounds” (Deciphera Pharmaceuticals, LLC, priority 2012, dated 2015)
Structures can show the parent of a compound that is named as a salt.

Columns and labels:
[1] = tested on: phospho-ERK in HCT-116 cells; experiment: HCT-116 cell pERK assay (AlphaScreen SureFire); type: cell-based; conditions: Homo sapiens; HCT-116 cells, B-Raf wild type, K-Ras mutation; 4 hours; read-out: IC50 reduction of phospho-ERK signal
Method: Examples of Formula I are tested against HCT-116 cells harboring wild type B-Raf and K-Ras mutation. The phospho-ERK activities are evaluated as described below.
HCT-116 cells (catalog #CCL-247) are obtained from the American Type Culture Collection (ATCC, Manassas, Va.). Briefly, cells are grown in McCoy's 5A supplemented with 10% characterized fetal bovine serum (Invitrogen, Carlsbad, Calif.), and 1% Penicillin/Streptomycin/L-Glutamine at 37 degrees Celsius, 5% CO2, and 95% humidity. Cells are allowed to expand until reaching 75-90% confluency at which point they are subcultured or harvested for assay use. HCT-116 cells suspended in complete media are added to 384-well tissue culture treated plates (3×10^5 cells/mL; 7,500 cells per well). The cells are incubated overnight at 37 degrees Celsius, 5% CO2, and 95% humidity. Next, test compound or DMSO diluted in complete media is added to the wells (0.25% final DMSO concentration). The plates are then incubated for 4 hours at 37 degrees Celsius, 5% CO2, and 95% humidity. Following compound incubation, the cells are lysed at 4° C. for 20 minutes with shaking Cell lysates are centrifuged and the supernatant is transferred to a new plate. An aliquot of each lysate is transferred to a white 384-well assay plate. Using the AlphaScreen SureFire pERK kit (Perkin-Elmer, Waltham, Mass.), an acceptor bead mixture is added to each well and incubated for 2 h at room temperature in the dark. A donor bead mixture is then added to each well and incubated for 2 h at room temperature in the dark. Plates are read using a Synergy2 plate reader (Biotek, Winooski, Vt.) in Plate Mode with Timing Control. Read: (F)1: excitation: 680/30 nm, emission: Plug. 2: Excitation: Plug, emission: 570/100 nm. Top mirror 635 nm. Data is analyzed using Prism software (Graphpad, San Diego, Calif.) to calculate IC50 values and Excel software (Microsoft, Redmond, Wash.) to calculate stimulation compared to control.

A375res cells [2] = experiment: Proliferation assay in vemurafenib-resistant A375res melanoma cells; conditions: Homo sapiens, 72 h, read-out: absolute IC50 values
Description: (§1) A vemurafenib-resistant cell line is generated by chronic treatment of the human melanoma cell line A375 (ATCC) harboring the B-Raf V600E mutation with increasing concentrations PLX4720.

A375res cells [3] = tested on: A375res cells
Description: as §1

SMILES	IC50 [1]	IC50 (A375res cells [2])	IC50 shift A375 to A375res (A375res cells [3])
Cc1cc(F)c(NC(=O)NCCC(C)(C)F)cc1-c1cc2cnc(NCCO)cc2nc1C [Example 65, 1-(3-fluoro-3-methylbutyl)-3-(2-fluoro-5-(7-((2-hydroxyethyl)amino)-2-methyl-1,6-naphthyridin-3-yl)-4-methylphenyl)urea]		9 to 504 nM	0.5-4.9 fold
CNc1cc2nc(C)c(-c3cc(NC(=O)NCCC4(C)CC4)c(F)cc3F)cc2cn1 [Example 94, 1-(2,4-difluoro-5-(2-methyl-7-(methylamino)-1,6-naphthyridin-3-yl)phenyl)-3-(2-(1-methylcyclopropyl)ethyl)urea hydrochloride]	2 to 96 nM	9 to 504 nM	0.5-4.9 fold
CNc1cc2nc(C)c(-c3cc(NC(=O)NCC4CCCCC4)c(F)cc3C)cc2cn1 [Example 29, 1-(cyclohexylmethyl)-3-(2-fluoro-4-methyl-5-(2-methyl-7-(methylamino)-1,6-naphthyridin-3-yl)phenyl)urea hydrochloride]		9 to 504 nM	0.5-4.9 fold
CNc1cc2nc(C)c(-c3cc(NC(=O)NCCC(C)C)c(F)cc3C)cc2cn1 [Example 45, 1-(2-fluoro-4-methyl-5-(2-methyl-7-(methylamino)-1,6-naphthyridin-3-yl)phenyl)-3-isopentylurea]	2 to 96 nM	9 to 504 nM	0.5-4.9 fold
CNc1cc2nc(C)c(-c3cc(NC(=O)NCCC4(OC)CC4)c(F)cc3F)cc2cn1 [Example 28, 1-(2,4-difluoro-5-(2-methyl-7-(methylamino)-1,6-naphthyridin-3-yl)phenyl)-3-(2-(1-methoxycyclopropyl)ethyl)urea]		9 to 504 nM	0.5-4.9 fold
Cc1cc(F)c(NC(=O)NCCC(C)(C)C)cc1-c1cc2cnc(N)cc2nc1C [Example 129, 1-(5-(7-amino-2-methyl-1,6-naphthyridin-3-yl)-2-fluoro-4-methylphenyl)-3-(3,3-dimethylbutyl)urea hydrochloride]	2 to 96 nM	9 to 504 nM	
CNc1cc2nc(C)c(-c3cc(NC(=O)NCCC4(C(F)(F)F)CC4)c(F)cc3C)cc2cn1 [Example 23, 1-(2-fluoro-4-methyl-5-(2-methyl-7-(methylamino)-1,6-naphthyridin-3-yl)phenyl)-3-(2-(1-(trifluoromethyl)cyclopropyl)ethyl)urea hydrochloride]	2 to 96 nM	9 to 504 nM	0.5-4.9 fold
CNc1cc2nc(C)c(-c3cc(NC(=O)NCCCC(C)(C)F)c(F)cc3C)cc2cn1 [Example 101, 1-(2-fluoro-4-methyl-5-(2-methyl-7-(methylamino)-1,6-naphthyridin-3-yl)phenyl)-3-(4-fluoro-4-methylpentyl)urea hydrochloride]		9 to 504 nM	0.5-4.9 fold
CNc1cc2nc(C)c(-c3cc(NC(=O)NC(C)CC(C)(C)C)c(F)cc3C)cc2cn1 (centres unmarked) [Example 59, 1-(4,4-dimethylpentan-2-yl)-3-(2-fluoro-4-methyl-5-(2-methyl-7-(methylamino)-1,6-naphthyridin-3-yl)phenyl)urea]		9 to 504 nM	0.5-4.9 fold
CNc1cc2nc(C)c(-c3cc(NC(=O)N[C@H]4C[C@@](C)(F)C4)c(F)cc3C)cc2cn1 [Example 100, 1-(3-fluoro-trans(3-methylcyclobutyl))-3-(2-fluoro-4-methyl-5-(2-methyl-7-(methylamino)-1,6-naphthyridin-3-yl)phenyl)urea]		9 to 504 nM	0.5-4.9 fold
CNc1cc2nc(C)c(-c3cc(NC(=O)NCCC4CCC4)c(F)cc3C)cc2cn1 [Example 97, 1-(2-cyclobutylethyl)-3-(2-fluoro-4-methyl-5-(2-methyl-7-(methylamino)-1,6-naphthyridin-3-yl)phenyl)urea hydrochloride]		9 to 504 nM	0.5-4.9 fold
CNc1cc2nc(C)c(-c3cc(NC(=O)N[C@H](C)CC(C)(C)C)c(F)cc3C)cc2cn1 [Example 72, (R)-1-(4,4-dimethylpentan-2-yl)-3-(2-fluoro-4-methyl-5-(2-methyl-7-(methylamino)-1,6-naphthyridin-3-yl)phenyl)urea]		9 to 504 nM	0.5-4.9 fold
CNc1cc2nc(C)c(-c3cc(NC(=O)NCCC4(OC)CC4)c(F)cc3C)cc2cn1 [Example 31, 1-(2-fluoro-4-methyl-5-(2-methyl-7-(methylamino)-1,6-naphthyridin-3-yl)phenyl)-3-(2-(1-methoxycyclopropyl)ethyl)urea hydrochloride]		9 to 504 nM	0.5-4.9 fold

The next lines start with the values.

IC50 [1]	IC50 (A375res cells [2])	IC50 shift A375 to A375res (A375res cells [3])	SMILES
2 to 96 nM	9 to 504 nM	0.5-4.9 fold	CNc1cc2ncc(-c3cc(NC(=O)NCCC(C)(C)F)c(F)cc3C)cc2cn1 [Example 93, 1-(3-fluoro-3-methylbutyl)-3-(2-fluoro-4-methyl-5-(7-(methylamino)-1,6-naphthyridin-3-yl)phenyl)urea]
	9 to 504 nM	0.5-4.9 fold	CNc1cc2nc(C)c(-c3cc(NC(=O)NCCCC(F)(F)F)c(F)cc3C)cc2cn1 [Example 91, hydrochloride]
2 to 96 nM	9 to 504 nM	0.5-4.9 fold	CNc1cc2nc(C)c(-c3cc(NC(=O)NCCC4CC4)c(F)cc3C)cc2cn1 [Example 84, 1-(2-cyclopropylethyl)-3-(2-fluoro-4-methyl-5-(2-methyl-7-(methylamino)-1,6-naphthyridin-3-yl)phenyl)urea hydrochloride]
	9 to 504 nM	0.5-4.9 fold	CNc1cc2nc(C)c(-c3cc(NC(=O)NCC(O)C(C)C)c(F)cc3C)cc2cn1 (centres unmarked) [Example 60, 1-(2-fluoro-4-methyl-5-(2-methyl-7-(methylamino)-1,6-naphthyridin-3-yl)phenyl)-3-(2-hydroxy-3-methylbutyl)urea]
2 to 96 nM	9 to 504 nM	0.5-4.9 fold	CNc1cc2nc(C)c(-c3cc(NC(=O)NCC4CC(C)(C)C4)c(F)cc3F)cc2cn1 [Example 13, 1-(2,4-difluoro-5-(2-methyl-7-(methylamino)-1,6-naphthyridin-3-yl)phenyl)-3-((3,3-dimethylcyclobutyl)methyl)urea hydrochloride]
	9 to 504 nM	0.5-4.9 fold	CNc1cc2nc(C)c(-c3cc(NC(=O)NCCCC(C)(F)F)c(F)cc3C)cc2cn1 [Example 99, 1-(4,4-difluoropentyl)-3-(2-fluoro-4-methyl-5-(2-methyl-7-(methylamino)-1,6-naphthyridin-3-yl)phenyl)urea hydrochloride]
2 to 96 nM	9 to 504 nM	0.5-4.9 fold	Cc1cc(F)c(NC(=O)NCCC(C)(C)F)cc1-c1cc2cnc(NC=O)cc2nc1C [Example 125, N-(3-(4-fluoro-5-(3-(3-fluoro-3-methylbutyl)ureido)-2-methylphenyl)-2-methyl-1,6-naphthyridin-7-yl)formamide hydrochloride]
2 to 96 nM	9 to 504 nM	0.5-4.9 fold	CNc1cc2nc(C)c(-c3cc(NC(=O)NC4CCOC(C)(C)C4)c(F)cc3C)cc2cn1 (centres unmarked) [Example 20, 1-(2,2-dimethyltetrahydro-2H-pyran-4-yl)-3-(2-fluoro-4-methyl-5-(2-methyl-7-(methylamino)-1,6-naphthyridin-3-yl)phenyl)urea hydrochloride]
